Laboratory results: patent US11033569B2, “Compounds,Compositions, and methods for the treatment of disease” (Sperovie Biosciences, Inc., priority 2016, dated 2021)
Entries after “also recorded” stand apart in the source; their conditions may differ. Read-outs that look alike come from different tables or passages of the source.

Experiments:
CT26 colon cancer = experiment: Syngeneic CT26 colon cancer mouse model; format: in vivo; conditions: intratumoral administration
ISG54 ISRE-luc reporter = ISG54 ISRE-luc reporter activation in HEK293 (SZ14) cells, screen for STING agonists; format: cell-based; conditions: digitonin buffer, 5 hours, read-out: IRF EC50
Description: (§1) ISG54 or NF-κβ activity was determined using the Steady-glo buffer system (Promega), and are expressed as EC50 values summarized in Table 3 below. […] This calculation is applicable for compounds with enzyme inhibition activity, as the baseline for an untreated sample may be set at 100% enzymatic activity, and therefore % inhibition is evaluated based on this 100% maximal basis. For these studies, the EC50 value relates to the concentration required to achieve a value 50% activity level above the untreated sample set at 0%.
(§2) Data are shown as fold induction over cells that received DMSO (compound carrier) alone as the mean, +/−standard deviation of duplicate wells per stimulant.

NF-κβ-luc reporter = NF-κβ-luc reporter activation in HEK293 (SZ14) cells, screen for STING agonists; format: cell-based; conditions: digitonin buffer, 5 hours, read-out: NF-KB EC50
Description: as §1, §2

mouse macrophages = experiment: Type I IFN signaling in mouse macrophages; format: cell-based; conditions: mouse macrophages (FIG. 36B)
Description: Activity of secreted luciferase in cell culture supernatant was measured using Invivogen Quanti-luc. Data are shown as fold induction over DMSO treated cells (mean±standard deviation of triplicate wells per stimulant).

human monocytes = experiment: Activity in human monocytes; format: cell-based; conditions: human monocytes (FIG. 36A)
THP1 cells = experiment: Type III IFN (IL-29) production in THP1 cells (ELISA); format: cell-based; conditions: 21 hrs
Description: Level of IL-29 in culture supernatant was determined using ELISA. Results shown are the average±standard deviation of duplicate wells.

A20 lymphoma = experiment: Syngeneic A20 lymphoma mouse model; format: in vivo; conditions: monotherapy; for tumor growth: compared with vehicle
THP1 cells and PBMCs = experiment: Gene expression of ISGs and PRRs in THP1 and PBMCs (real time PCR); format: cell-based; conditions: 5 uM, Lipofectamine LTX, 20 h
Description: (§3) After incubation for 20 h, RNA was extracted and gene expression of different Interferon Stimulated Genes (ISGs) and various Pattern Recognition Receptors (PRRs) was evaluated by real time PCR. Fold Induction was calculated by ΔΔct method.
as §3

[1] = vs vehicle, vehicle and Ethanol (FIG. 80)

SMILES	EC50 (ISG54 ISRE-luc reporter) [nM]	EC50 (NF-κβ-luc reporter) [nM]	further results
CCCCCCCCCCOc1ccc(C(=O)Oc2ccc(CSP3(=O)OC[C@H]4O[C@@H](n5cnc6c(N)ncnc65)[C@H](F)[C@@H]4OP(=O)(O)OC[C@H]4O[C@@H](n5ccc(=O)[nH]c5=O)[C@H](F)[C@@H]4O3)cc2)c(C)c1 (some centres unmarked) [Cmd 25]	< 50	50 to 500	tumor growth (CT26 colon cancer; vs vehicle (FIG. 79)): considerable tumor growth inhibition; tumor growth (CT26 colon cancer; [1]): considerable tumor growth inhibition
CCCCCCCCOc1ccc(C(=O)Oc2ccc(CSP3(=O)OC[C@H]4O[C@@H](n5cnc6c(N)ncnc65)[C@H](F)[C@@H]4OP(=O)(O)OC[C@H]4O[C@@H](n5ccc(=O)[nH]c5=O)[C@H](F)[C@@H]4O3)cc2)cc1.N (some centres unmarked) [Cmd 12]	< 50	< 50	activity relative to natural STING ligand 3′,3′-cGAMP (mouse macrophages): more active; activity relative to natural STING ligand 3′,3′-cGAMP (human monocytes): more active
CCCCCCCCCCCCOc1ccc(C(=O)Oc2ccc(CS[P@@]3(=O)OC[C@H]4O[C@@H](n5cnc6c(N)ncnc65)[C@H](F)[C@@H]4OP(=O)(O)OC[C@H]4O[C@@H](n5ccc(=O)[nH]c5=O)[C@H](F)[C@@H]4O3)cc2)cc1 [Cmd 22]	< 50	50 to 500	–
CCCCCCCCCCCCOc1ccc(C(=O)Oc2ccc(CS[P@]3(=O)OC[C@H]4O[C@@H](n5cnc6c(N)ncnc65)[C@H](F)[C@@H]4OP(=O)(O)OC[C@H]4O[C@@H](n5ccc(=O)[nH]c5=O)[C@H](F)[C@@H]4O3)cc2)cc1 [Cmd 23]	< 50	50 to 500	–
CCCCCCCCCCCC(=O)Oc1ccc(CSP2(=O)OC[C@H]3O[C@@H](n4cnc5c(N)ncnc54)[C@H](F)[C@@H]3OP(=O)(O)OC[C@H]3O[C@@H](n4ccc(=O)[nH]c4=O)[C@H](F)[C@@H]3O2)cc1.N (some centres unmarked) [Cmd 13]	< 50	50 to 500	activity relative to natural STING ligand 3′,3′-cGAMP (mouse macrophages): more active; activity relative to natural STING ligand 3′,3′-cGAMP (human monocytes): more active
CCCCCCCCCCNC(=O)Oc1ccc(CSP2(=O)OC[C@H]3O[C@@H](n4cnc5c(N)ncnc54)[C@H](F)[C@@H]3OP(=O)(O)OC[C@H]3O[C@@H](n4ccc(=O)[nH]c4=O)[C@H](F)[C@@H]3O2)cc1 (some centres unmarked) [Cmd 32]	50 to 500	50 to 500	–
CO[C@@H]1[C@@H]2OP(=O)(S)OC[C@H]3O[C@@H](n4cnc5c(N)ncnc54)C[C@@H]3OP(=O)(S)OC[C@H]2O[C@H]1n1ccc(=O)[nH]c1=O (some centres unmarked) [Cmd 17]	–	–	EC50 (ISG54 ISRE-luc reporter; Homo sapiens): > 2000 nM; EC50 (NF-κβ-luc reporter; Homo sapiens): > 2000 nM
CCCCCCCCCCCCOc1ccc(C(=O)Oc2ccc(CSP3(=O)OC[C@H]4O[C@@H](n5cnc6c(N)ncnc65)[C@H](F)[C@@H]4OP(=O)(O)OC[C@H]4O[C@@H](n5ccc(=O)[nH]c5=O)[C@H](F)[C@@H]4O3)cc2)cc1.N (some centres unmarked) [Cmd 15]	< 50	< 50	activity relative to natural STING ligand 3′,3′-cGAMP (mouse macrophages): more active; activity relative to natural STING ligand 3′,3′-cGAMP (human monocytes): more active; type III interferon (IL-29) production (THP1 cells): induce type III interferon (IL-29) production
CCCCCCCCCCOc1ccc(C(=O)Oc2ccc(CS[P@]3(=O)OC[C@H]4O[C@@H](n5cnc6c(N)ncnc65)[C@H](F)[C@@H]4OP(=O)(O)OC[C@H]4O[C@@H](n5ccc(=O)[nH]c5=O)[C@H](F)[C@@H]4O3)cc2)cc1.N (single isomer, unassigned) [Cmd 1A]	< 50	50 to 500	survival rate (A20 lymphoma): significantly improve the survival rate; tumor growth (A20 lymphoma): inhibit mouse A20 B cell lymphoma tumor cells
Nc1ncnc2c1ncn2[C@@H]1O[C@@H]2COP(=O)(S)O[C@H]3[C@@H](F)[C@H](n4ccc(=O)[nH]c4=O)O[C@@H]3COP(=O)(S)O[C@H]2[C@H]1F (some centres unmarked) [Cmd 2]	–	–	EC50 (ISG54 ISRE-luc reporter; Homo sapiens): 1000 to 2000 nM; EC50 (NF-κβ-luc reporter; Homo sapiens): > 2000 nM
Nc1nc2c(ncn2[C@@H]2O[C@@H]3COP(=O)(S)O[C@H]4[C@@H](O)[C@H](n5cnc6c(=O)[nH]c(N)nc65)O[C@@H]4COP(=O)(S)O[C@H]3[C@H]2O)c(=O)[nH]1 (some centres unmarked) [Cmd 18]	–	–	EC50 (ISG54 ISRE-luc reporter; Homo sapiens): > 2000 nM; EC50 (NF-κβ-luc reporter; Homo sapiens): > 2000 nM
CCCCCCCCCCOC(=O)Oc1ccc(CSP2(=O)OC[C@H]3O[C@@H](n4cnc5c(N)ncnc54)[C@H](F)[C@@H]3OP(=O)(O)OC[C@H]3O[C@@H](n4ccc(=O)[nH]c4=O)[C@H](F)[C@@H]3O2)cc1 (some centres unmarked) [Cmd 26]	< 50	< 50	–
N.N.Nc1ncnc2c1ncn2[C@@H]1O[C@@H]2COP(=O)(S)O[C@H]3[C@@H](F)[C@H](n4ccc(=O)[nH]c4=O)O[C@@H]3COP(=O)(O)O[C@H]2[C@H]1F (some centres unmarked) [Cmd 21]	–	–	tumor growth (CT26 colon cancer; vs vehicle (FIG. 79)): considerable tumor growth inhibition; tumor growth (CT26 colon cancer; [1]): considerable tumor growth inhibition; survival rate (A20 lymphoma): significantly improve the survival rate; tumor growth (A20 lymphoma): considerable tumor growth inhibition; also recorded: inhibit mouse A20 B cell lymphoma tumor cells; EC50 (ISG54 ISRE-luc reporter; Homo sapiens): 500 to 1000 nM; EC50 (NF-κβ-luc reporter; Homo sapiens): > 2000 nM
CCCCCCCCCCOc1ccc(C(=O)Oc2ccc(CSP3(=O)OC[C@H]4O[C@@H](n5cnc6c(N)ncnc65)C[C@@H]4OP(=O)(SCc4ccc(OC(=O)c5ccc(OCCCCCCCCCC)cc5)cc4)OC[C@H]4O[C@@H](n5ccc(=O)[nH]c5=O)[C@H](OC)[C@@H]4O3)cc2)cc1 (some centres unmarked) [Cmd 20]	> 2000	> 2000	–
CCCCCCOc1ccc(C(=O)Oc2ccc(CSP3(=O)OC[C@H]4O[C@@H](n5cnc6c(N)ncnc65)[C@H](F)[C@@H]4OP(=O)(O)OC[C@H]4O[C@@H](n5ccc(=O)[nH]c5=O)[C@H](F)[C@@H]4O3)cc2)cc1.N (some centres unmarked) [Cmd 14]	< 50	< 50	activity relative to natural STING ligand 3′,3′-cGAMP (mouse macrophages): more active; activity relative to natural STING ligand 3′,3′-cGAMP (human monocytes): more active
CCCCCCCCCCOc1ccc(C(=O)Oc2ccc(CSP3(=O)OC[C@H]4O[C@@H](n5cnc6c(N)ncnc65)[C@H](F)[C@@H]4OP(=O)(SCc4ccc(OC(=O)c5ccc(OCCCCCCCCCC)cc5)cc4)OC[C@H]4O[C@@H](n5ccc(=O)[nH]c5=O)[C@H](F)[C@@H]4O3)cc2)cc1 (some centres unmarked) [Cmd 4]	1000 to 2000	> 2000	induction of ISG and PRR-associated genes, THP1 compared to PBMCs (THP1 cells and PBMCs): Enhanced Activity
CCCCCCCCCCOc1ccc(C(=O)Nc2ccc(CSP3(=O)OC[C@H]4O[C@@H](n5cnc6c(N)ncnc65)[C@H](F)[C@@H]4OP(=O)(O)OC[C@H]4O[C@@H](n5ccc(=O)[nH]c5=O)[C@H](F)[C@@H]4O3)cc2)cc1 (some centres unmarked) [Cmd 30]	500 to 1000	> 2000	–
CC(C)OC(=O)OCSP1(=O)OC[C@H]2O[C@@H](n3cnc4c(N)ncnc43)[C@H](F)[C@@H]2OP(=O)(O)OC[C@H]2O[C@@H](n3ccc(=O)[nH]c3=O)[C@H](F)[C@@H]2O1.N (some centres unmarked) [Cmd 5]	> 2000	> 2000	activity relative to natural STING ligand 3′,3′-cGAMP (mouse macrophages): more active; activity relative to natural STING ligand 3′,3′-cGAMP (human monocytes): more active
CCCCCCCCCCOc1ccc(C(=O)NCc2ccc(CSP3(=O)OC[C@H]4O[C@@H](n5cnc6c(N)ncnc65)[C@H](F)[C@@H]4OP(=O)(O)OC[C@H]4O[C@@H](n5ccc(=O)[nH]c5=O)[C@H](F)[C@@H]4O3)cc2)cc1 (some centres unmarked) [Cmd 31]	500 to 1000	> 2000	–
CCCCCCCCCCOc1ccc(C(=O)Oc2ccc(CS[P@@]3(=O)OC[C@H]4O[C@@H](n5cnc6c(N)ncnc65)[C@H](F)[C@@H]4OP(=O)(O)OC[C@H]4O[C@@H](n5ccc(=O)[nH]c5=O)[C@H](F)[C@@H]4O3)cc2)cc1 (single isomer, unassigned) [Cmd 1B]	< 50	50 to 500	–
CCCCCCCCCCOc1ccc(Oc2ccc(CSP3(=O)OC[C@H]4O[C@@H](n5cnc6c(N)ncnc65)[C@H](F)[C@@H]4OP(=O)(O)OC[C@H]4O[C@@H](n5ccc(=O)[nH]c5=O)[C@H](F)[C@@H]4O3)cc2)cc1 (some centres unmarked) [Cmd 29]	50 to 500	500 to 1000	–
